Several values for one entry are separate records, joined by “and”; a condition that tells them apart may be missing. Identical values can stand only once.
Key:
[1] = target: T1, HDAC3/NcoR2 complex (Homo sapiens, UniProt O15379); assay: HDAC-Glo assay; format: biochemical; settings: for EC50: read-out: log EC50 from dose-dependent HDAC inhibition curves (converted); for HDCA3 relative activity: sheet S2b
T1 construct: purchased BPS Bioscience 50003
Procedure: (§1) To validate the inhibition of HDACs by LA and LM and elaborate on the structure-activity relationship (SAR) of enantiomers as well as oxidized versus reduced forms of the molecules, we performed enzyme activity assays for recombinant HDAC1,2,3,6,8 as well as FRET-based binding assay for recombinant HDAC10.
(§2) The experiments were performed according to ref. [48]. […] Drug dosing was performed with a D300e Digital Dispenser (Tecan). HDACs (7 ng/mL for HDAC1, 25 ng/mL for HDAC2, 200 ng/mL for HDAC3/Ncor2 complex, 100 ng/mL for HDAC6, 200 ng/mL for HDAC8) and inhibitors were incubated together at room temperature (RT) for 30 min. After the addition of the HDAC-Glo™ I/II reagent, plates were shaken (800 rpm orbital shaker, 30 s), centrifuged (300 g, 1 min), and incubated at RT for 30 min. Luminescence was detected with a CLARIOstar (BMG Labtech) plate reader.

[2] = target: T2, TwinStrep-GST-HDAC10 (Homo sapiens, UniProt Q969S8); assay: HDAC10 TR-FRET assay; format: binding; settings: reducing conditions (0.5 M TCEP)
T2 sequence (Q969S8 1-669): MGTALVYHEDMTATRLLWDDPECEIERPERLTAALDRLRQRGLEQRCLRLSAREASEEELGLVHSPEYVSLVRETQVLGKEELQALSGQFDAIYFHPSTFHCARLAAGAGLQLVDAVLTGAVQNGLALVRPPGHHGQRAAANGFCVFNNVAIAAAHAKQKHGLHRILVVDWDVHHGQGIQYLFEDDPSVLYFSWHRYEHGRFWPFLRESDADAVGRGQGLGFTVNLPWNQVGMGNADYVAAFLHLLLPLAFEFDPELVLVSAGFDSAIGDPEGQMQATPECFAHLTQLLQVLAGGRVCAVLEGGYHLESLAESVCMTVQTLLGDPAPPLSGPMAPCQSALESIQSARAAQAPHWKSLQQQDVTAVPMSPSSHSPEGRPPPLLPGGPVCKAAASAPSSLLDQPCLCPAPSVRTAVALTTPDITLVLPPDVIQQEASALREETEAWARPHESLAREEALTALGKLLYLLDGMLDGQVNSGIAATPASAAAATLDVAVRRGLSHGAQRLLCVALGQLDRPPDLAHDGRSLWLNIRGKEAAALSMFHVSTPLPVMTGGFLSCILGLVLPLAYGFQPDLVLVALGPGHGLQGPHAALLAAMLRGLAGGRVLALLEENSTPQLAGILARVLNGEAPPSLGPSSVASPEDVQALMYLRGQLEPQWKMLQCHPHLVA
Procedure: as §1
Inhibitors with a D300e Digital Dispenser (Tecan). After drug dosing to the premixed assay reagents in buffer, plates were shaken (800 rpm orbital shaker, 30 s), centrifuged (300g, 1 min), and incubated at RT in the dark for 90 min. TR-FRET was measured with a CLARIOstar (BMG Labtech) plate reader, equipped with TR-FRET filters.

[3] = target: HDAC2 (Homo sapiens, UniProt Q92769); assay: HDAC-Glo assay; format: biochemical; parameters: purchased BPS Bioscience 50002; settings: for EC50: read-out: log EC50 from dose-dependent HDAC inhibition curves (converted); for HDAC2 relative activity: sheet S2b
Procedure: as §1, §2

[4] = target: T3, HDAC8 (Homo sapiens, UniProt Q9BY41); assay: HDAC-Glo assay; format: biochemical; parameters: purchased BPS Bioscience 50008; settings: read-out: log EC50 from dose-dependent HDAC inhibition curves (converted)
T3 sequence (Q9BY41 1-377): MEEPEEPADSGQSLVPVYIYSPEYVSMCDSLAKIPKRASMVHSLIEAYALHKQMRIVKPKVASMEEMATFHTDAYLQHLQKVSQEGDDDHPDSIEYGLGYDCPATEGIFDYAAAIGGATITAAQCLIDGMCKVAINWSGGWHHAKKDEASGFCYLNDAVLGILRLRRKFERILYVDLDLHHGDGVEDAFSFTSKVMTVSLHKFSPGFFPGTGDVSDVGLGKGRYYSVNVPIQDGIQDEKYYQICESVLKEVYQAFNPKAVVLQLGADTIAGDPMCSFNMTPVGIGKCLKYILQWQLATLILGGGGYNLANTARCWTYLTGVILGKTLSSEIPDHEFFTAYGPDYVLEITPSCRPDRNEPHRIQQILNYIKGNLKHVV
Procedure: as §1, §2

[5] = 0.5 M TCEP, log10 M -3.30103, 3 technical replicates
[6] = 0.5 M TCEP, log10 M -3.82945, 3 technical replicates
[7] = 0.5 M TCEP, log10 M -4.35788, 3 technical replicates
[8] = 0.5 M TCEP, log10 M -4.88629, 3 technical replicates
[9] = 0.5 M TCEP, log10 M -5.41477, 3 technical replicates
[10] = 0.5 M TCEP, log10 M -5.94309, 3 technical replicates
[11] = 0.5 M TCEP, log10 M -6.47756, 3 technical replicates
[12] = 0.5 M TCEP, log10 M -6.87615, 3 technical replicates
[13] = no TCEP, log10 M -3.30103, 3 technical replicates
[14] = no TCEP, log10 M -3.82945, 3 technical replicates
[15] = no TCEP, log10 M -4.35788, 3 technical replicates
[16] = no TCEP, log10 M -4.88629, 3 technical replicates
[17] = no TCEP, log10 M -5.41477, 3 technical replicates
[18] = no TCEP, log10 M -5.94309, 3 technical replicates
[19] = no TCEP, log10 M -6.47756, 3 technical replicates
[20] = no TCEP, log10 M -6.87615, 3 technical replicates

T1 sequence (O15379 whole entry): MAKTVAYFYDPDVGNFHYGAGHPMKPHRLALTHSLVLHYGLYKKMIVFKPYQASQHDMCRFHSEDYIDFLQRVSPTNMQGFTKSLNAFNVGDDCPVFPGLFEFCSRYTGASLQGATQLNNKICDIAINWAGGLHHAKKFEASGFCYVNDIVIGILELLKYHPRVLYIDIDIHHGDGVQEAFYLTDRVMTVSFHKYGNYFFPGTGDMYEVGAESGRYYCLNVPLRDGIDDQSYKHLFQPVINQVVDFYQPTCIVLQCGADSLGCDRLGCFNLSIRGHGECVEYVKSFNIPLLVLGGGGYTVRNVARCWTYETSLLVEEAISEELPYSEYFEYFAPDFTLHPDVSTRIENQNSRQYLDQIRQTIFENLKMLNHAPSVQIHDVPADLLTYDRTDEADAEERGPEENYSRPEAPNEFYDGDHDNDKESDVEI
T1 sequence (Q9Y618 395-489 partner limits assumed): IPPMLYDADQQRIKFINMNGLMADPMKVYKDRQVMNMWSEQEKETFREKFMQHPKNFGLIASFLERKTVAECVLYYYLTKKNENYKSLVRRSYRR
HDAC2, sequence (Q92769 whole entry): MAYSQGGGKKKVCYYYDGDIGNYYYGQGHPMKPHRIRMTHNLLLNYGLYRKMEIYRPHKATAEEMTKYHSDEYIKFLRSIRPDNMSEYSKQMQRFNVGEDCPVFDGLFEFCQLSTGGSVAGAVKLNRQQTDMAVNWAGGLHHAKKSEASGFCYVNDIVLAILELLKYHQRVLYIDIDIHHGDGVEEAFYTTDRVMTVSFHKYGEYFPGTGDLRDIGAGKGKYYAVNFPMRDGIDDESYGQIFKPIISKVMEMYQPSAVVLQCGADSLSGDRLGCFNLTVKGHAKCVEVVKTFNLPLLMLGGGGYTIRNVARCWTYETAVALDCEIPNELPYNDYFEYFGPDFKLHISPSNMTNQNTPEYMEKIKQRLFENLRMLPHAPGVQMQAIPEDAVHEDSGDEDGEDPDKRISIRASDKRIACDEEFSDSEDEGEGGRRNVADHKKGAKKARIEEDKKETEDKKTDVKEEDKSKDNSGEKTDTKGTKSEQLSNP

## O=C(O)CCCCC1CCSS1 (racemic) [(R/S)-LA, (R/S)-lipoic acid]
[1]; [5]
  HDAC enzymatic activity (normalized luminescence): 7.256 and 7.282 and 7.339
[1]; [6]
  HDAC enzymatic activity (normalized luminescence): 17.0785 and 16.9479 and 17.22
[1]; [7]
  HDAC enzymatic activity (normalized luminescence): 49.3596 and 49.0858 and 50.0362
[1]; [8]
  HDAC enzymatic activity (normalized luminescence): 95.5948 and 97.1564 and 98.2162
[1]; [9]
  HDAC enzymatic activity (normalized luminescence): 101.96 and 103.73 and 105.005
[1]; [10]
  HDAC enzymatic activity (normalized luminescence): 91.2378 and 92.4271 and 93.0815
[1]; [11]
  HDAC enzymatic activity (normalized luminescence): 89.2879 and 93.1305 and 94.7241
[1]; [12]
  HDAC enzymatic activity (normalized luminescence): 90.3991 and 92.4306 and 92.5457
[1]; [13]
  HDAC enzymatic activity (normalized luminescence): 64.3889 and 65.753 and 66.6157
[1]; [14]
  HDAC enzymatic activity (normalized luminescence): 67.3361 and 68.514 and 68.6262
[1]; [15]
  HDAC enzymatic activity (normalized luminescence): 79.5043 and 81.2871 and 81.6059
[1]; [16]
  HDAC enzymatic activity (normalized luminescence): 87.8136 and 89.4197 and 90.6707
[1]; [17]
  HDAC enzymatic activity (normalized luminescence): 88.1589 and 90.4647 and 92.122
[1]; [18]
  HDAC enzymatic activity (normalized luminescence): 88.1501 and 88.386 and 90.7058
[1]; [19]
  HDAC enzymatic activity (normalized luminescence): 88.6188 and 88.5508 and 90.3108
[1]; [20]
  HDAC enzymatic activity (normalized luminescence): 97.6646 and 98.0479 and 97.5948
[1]
  EC50: 41.7 µM
[1]; log conc -3.30103
  HDCA3 relative activity: 4.168 and 4.13 and 4.176
[1]; log conc -3.82945
  HDCA3 relative activity: 8.909 and 8.94 and 8.919
[1]; log conc -4.35788
  HDCA3 relative activity: 25.3559 and 24.0859 and 24.4605
[1]; log conc -4.88629
  HDCA3 relative activity: 55.6369 and 56.3521 and 62.4157
[1]; log conc -5.41477
  HDCA3 relative activity: 100.947 and 102.17 and 103.057
[1]; log conc -5.94309
  HDCA3 relative activity: 105.476 and 106.045 and 106.401
[1]; log conc -6.47756
  HDCA3 relative activity: 89.5862 and 90.873 and 93.4553
[1]; log conc -6.87615
  HDCA3 relative activity: 104.127 and 108.406 and 102.786
[2]
  fold lower affinity to HDAC10 compared to Vorinostat: ~200 fold
[3]; [5]
  HDAC enzymatic activity (normalized luminescence): 4.517 and 4.579 and 4.669
[3]; [6]
  HDAC enzymatic activity (normalized luminescence): 14.6838 and 15.1597 and 14.9231
[3]; [7]
  HDAC enzymatic activity (normalized luminescence): 37.5127 and 37.9281 and 38.3803
[3]; [8]
  HDAC enzymatic activity (normalized luminescence): 65.6665 and 63.7639 and 65.7588
[3]; [9]
  HDAC enzymatic activity (normalized luminescence): 83.5292 and 85.2785 and 86.439
[3]; [10]
  HDAC enzymatic activity (normalized luminescence): 90.5846 and 91.5425 and 93.8157
[3]; [11]
  HDAC enzymatic activity (normalized luminescence): 95.0155 and 95.0012 and 98.6939
[3]; [12]
  HDAC enzymatic activity (normalized luminescence): 97.7664 and 98.3233 and 101.153
[3]; [13]
  HDAC enzymatic activity (normalized luminescence): 44.2753 and 42.6833 and 42.8281
[3]; [14]
  HDAC enzymatic activity (normalized luminescence): 74.0269 and 74.0487 and 74.0611
[3]; [15]
  HDAC enzymatic activity (normalized luminescence): 91.4647 and 91.3223 and 92.1121
[3]; [16]
  HDAC enzymatic activity (normalized luminescence): 96.4611 and 96.3058 and 97.9917
[3]; [17]
  HDAC enzymatic activity (normalized luminescence): 98.5234 and 99.2037 and 100.016
[3]; [18]
  HDAC enzymatic activity (normalized luminescence): 96.9658 and 96.4307 and 98.1115
[3]; [19]
  HDAC enzymatic activity (normalized luminescence): 98.5723 and 98.9021 and 101.472
[3]; [20]
  HDAC enzymatic activity (normalized luminescence): 102.033 and 100.085 and 101.747
[3]
  EC50: 27.9 µM
[3]; log conc -3.30103
  HDAC2 relative activity: 1.632 and 1.608 and 1.6104
[3]; log conc -3.82945
  HDAC2 relative activity: 4.377 and 4.239 and 4.397
[3]; log conc -4.35788
  HDAC2 relative activity: 14.1348 and 14.1034 and 14.0027
[3]; log conc -4.88629
  HDAC2 relative activity: 32.6794 and 32.1097 and 32.0348
[3]; log conc -5.41477
  HDAC2 relative activity: 62.7872 and 63.5079 and 63.5078
[3]; log conc -5.94309
  HDAC2 relative activity: 83.5078 and 83.413 and 83.6174
[3]; log conc -6.47756
  HDAC2 relative activity: 91.2192 and 90.5813 and 91.6447
[3]; log conc -6.87615
  HDAC2 relative activity: 99.2152 and 97.4208 and 97.0893
[4]
  EC50: 22.3 µM

## NC(=O)CCCCC1CCSS1 (racemic) [(R/S)-LM, (R/S)-lipoamide]
[1]
  EC50: 15.6 µM
[1]; log conc -3.30103
  HDCA3 relative activity: 69.6623 and 70.4079 and 69.1097
[1]; log conc -3.82945
  HDCA3 relative activity: 75.2589 and 76.6842 and 75.5671
[1]; log conc -4.35788
  HDCA3 relative activity: 87.3214 and 88.0897 and 87.877
[1]; log conc -4.88629
  HDCA3 relative activity: 91.0887 and 91.1636 and 92.3406
[1]; log conc -5.41477
  HDCA3 relative activity: 88.6242 and 91.0601 and 91.2237
[1]; log conc -5.94309
  HDCA3 relative activity: 95.2751 and 94.3928 and 97.2335
[1]; log conc -6.47756
  HDCA3 relative activity: 90.1183 and 90.3135 and 93.1985
[1]; log conc -6.87615
  HDCA3 relative activity: 107.529 and 106.868 and 106.288
[2]
  fold lower affinity to HDAC10 compared to Vorinostat: 5 fold
[3]
  EC50: 6.64 µM
[3]; log conc -3.30103
  HDAC2 relative activity: 71.964 and 72.3177 and 72.1483
[3]; log conc -3.82945
  HDAC2 relative activity: 80.6393 and 80.2369 and 79.5941
[3]; log conc -4.35788
  HDAC2 relative activity: 93.3465 and 95.4258 and 92.7624
[3]; log conc -4.88629
  HDAC2 relative activity: 96.436 and 96.5227 and 94.9323
[3]; log conc -5.41477
  HDAC2 relative activity: 101.607 and 103.068 and 101.387
[3]; log conc -5.94309
  HDAC2 relative activity: 100.457 and 99.1256 and 100.639
[3]; log conc -6.47756
  HDAC2 relative activity: 98.6184 and 99.6756 and 101.604
[3]; log conc -6.87615
  HDAC2 relative activity: 101.142 and 100.648 and 102.314
[4]
  EC50: 7.73 µM
